Assay results taken from patent US20250353820A1, “ANTIVIRAL PYRAZOLOPYRIDINONE COMPOUNDS” (Novartis AG, priority 2019, published 2025).
Where two headings read alike, the source gives them in different places.

Key:
[1] = molecular target: human CMV DNA polymerase UL54 (Human cytomegalovirus (strain AD169) (HHV-5) (Human herpesvirus 5), UniProt P08546); assay: biochemical
[2] = molecular target: human HSV DNA polymerase UL30 (Human herpesvirus 1 (strain 17) (HHV-1) (Human herpes simplex virus 1), UniProt P04293); assay: biochemical; conditions: 20 minutes at room temperature
[3] = tested on: Luciferase-encoding HCMV (AD169 strain); assay: microbe, parasite or virus in culture; assay type: cell-based
[4] = tested on: VZV Ellen strain; assay: VZV qPCR assay; conditions: Human alphaherpesvirus 3, MRC5, 48 h, read-out: Cellular activity against VZV (EC50)
[5] = tested on: EBV (SNU-719 gastric carcinoma cell line latently infected); assay: EBV qPCR assay; conditions: human gammaherpesvirus 4, 72 h, read-out: Cellular activity against EBV (EC50)
[6] = tested on: KOS strain of HSV-1 virus; assay: HSV-1 qPCR assay; conditions: read-out: Cellular activity against HSV-1 (EC50)
[7] = tested on: HCMV-Rluc virus (AD169 pp28-hRluc rUL131); assay: CMV Luciferase Assay of Compounds 243-262 in ARPE-19 cells; assay type: cell-based; conditions: Human betaherpesvirus 5, AD169, ARPE-19, 72 h, read-out: CMV-Luc Cellular EC50 in ARPE-19
Experimental: The assay uses a Luciferase-encoding HCMV. Luciferase is expressed under the control of a late viral gene (pp28) promoter in the AD169 strain, so that expression of the reporter is dependent on viral DNA replication. Compounds that affect any stage from viral entry to DNA replication result in a change in luciferase levels.
Compounds 243-262 were tested in a luminescence assay as follows.
ARPE-19 cells were maintained in growth medium (DMEM/F12 Glutamax+10 fetal bovine serum (FBS)+PenStrep) and, before reaching full confluence, were transferred to a centrifuge tube and spun for 5 minutes at 1000 rpm. The cells were resuspended in assay medium (DMEM/F12 Glutamax+2% FBS+PenStrep) and counted. Cell density was adjusted to one million cells per milliliter and infected with HCMV-Rluc virus (AD169 pp28-hRluc rUL131; MOI 0.6) in a 50 ml conical tube for 2 hours while shaking. After dilution of the infectious suspension ten-fold (to 100,000 cells per milliliter), 8000 cells are directly plated in 384-well plates pre-spotted with the compound to be tested. The cells were incubated for 72 hours at 37 degrees Celsius. Cells were then placed at room temperature and allowed to equilibrate for 20 minutes before addition of the Renilla-Glo (Promega) reagent. After a 10-minute incubation at room temperature, luminescence was measured on a microplate reader.

[8] = 100 pM CMV polymerase, 60 minutes at room temperature, read-out: CMV-polymerase Biochemical IC50
[9] = 625 pM HSV polymerase, read-out: HSV-polymerase Biochemical IC50
[10] = Human betaherpesvirus 5, AD169, 72 h, read-out: CMV-Luc Cellular EC50, NN-NHDF cells, MOI of 1, 72 hrs
[11] = read-out: CMV-Luc Cellular EC50, NN-NHDF cells, MOI of 1, 72 hrs

Compound	IC50 [1, 8]	IC50 [2, 9]	EC50 [3, 11]	further results
CC(N)COCC(C)(C)S(=O)(=O)C1(CN2CCc3c(C(=O)NCc4ccc(C#N)cc4)nn(C)c3C2=O)CC1 (single isomer, unassigned) [Example 99]	–	–	–	IC50 [1]: 4 nM; IC50 ([2]; HSV-polymerase Biochemical IC50, 625 pM HSV polymerase): 63 nM
CC(N)COCC(C)(C)S(=O)(=O)C1(CN2CCc3c(C(=O)NCc4ccc(C#N)cc4)nn(C)c3C2=O)CC1 (single isomer, unassigned) [Example 100, (R)- or (S)-6-((1-((1-(2-Aminopropoxy)-2-methylpropan-2-yl)sulfonyl)cyclopropyl)methyl)-N-(4-cyanobenzyl)-1-methyl-7-oxo-4,5,6,7-tetrahydro-1H-pyrazolo[3,4-c]pyridine-3-carboxamide]	4 nM	60 nM	–	EC50 [3, 10]: 13 nM
Cn1nc(C(=O)NCc2ccc(C#N)cc2)c2c1C(=O)N(CC1(S(=O)(=O)C3CCOC3)CC1)CC2 (single isomer, unassigned) [Example 170]	4 nM	122 nM	–	–
Cn1nc(C(=O)NCc2ccc(C#N)cc2)c2c1C(=O)N(CC1(S(=O)(=O)C3CCOC3)CC1)CC2 (single isomer, unassigned) [Example 171]	3 nM	78 nM	104 nM	–
Cn1nc(C(=O)NCc2ccc(C#N)cc2)c2c1C(=O)N(CC1(S(=O)(=O)C(C)(CN)CO)CC1)CC2 (single isomer, unassigned) [Example 184]	4 nM	52 nM	–	–
Cn1nc(C(=O)NCc2ccc(C#N)cc2)c2c1C(=O)N(CC1(S(=O)(=O)C(C)(CN)CO)CC1)CC2 (single isomer, unassigned) [Example 185]	4 nM	59 nM	275 nM	–
Cn1nc(C(=O)NCc2ccc(C#N)cc2)c2c1C(=O)N(CC1(S(=O)(=O)C3(C(O)CO)CC3)CC1)CC2 (single isomer, unassigned) [Example 195, (R)- or (S)—N-(4-Cyanobenzyl)-6-((1-((1-(1,2-dihydroxyethyl)cyclopropyl)sulfonyl)cyclopropyl)methyl)-1-methyl-7-oxo-4,5,6,7-tetrahydro-1H-pyrazolo[3,4-c]pyridine-3-carboxamide]	1 nM	–	53 nM	–
Cn1nc(C(=O)NCc2ccc(Cl)cc2)c2c1C(=O)N(CC1(S(=O)(=O)C3(C(O)CO)CC3)CC1)CC2 (single isomer, unassigned) [Example 196]	1 nM	19 nM	–	EC50 [3, 10]: 19 nM
Cn1nc(C(=O)NCc2ccc(Cl)cc2)c2c1C(=O)N(CC1(S(=O)(=O)C3(C(O)CO)CC3)CC1)CC2 (single isomer, unassigned) [Example 197]	1 nM	–	20 nM	–
Cn1nc(C(=O)NCc2ccc(C#N)cc2)c2c1C(=O)N(CC1(S(=O)(=O)C(C)(C)C(O)CN)CC1)CC2 (single isomer, unassigned) [Example 199]	1 nM	28 nM	–	EC50 [4]: 127 nM; EC50 [5]: 11 nM; EC50 ([6]; Human alphaherpesvirus 1, 24 h): 30 nM
Cn1nc(C(=O)NCc2ccc(Cl)cc2)c2c1C(=O)N(CC1(S(=O)(=O)C(C)(C)C(O)CN)CC1)CC2 (single isomer, unassigned) [Example 200]	1 nM	14 nM	–	–
Cn1nc(C(=O)NCc2ccc(Cl)cc2)c2c1C(=O)N(CC1(S(=O)(=O)C(C)(C)C(O)CN)CC1)CC2 (single isomer, unassigned) [Example 201]	1 nM	15 nM	6 nM	EC50 ([3]; read-out: Cellular activity against CMV (EC50), Table 18, CMV): 6 nM; EC50 ([6]; NN-NHDF cells, MOI of 0.01, 24 hrs, qPCR): 18 nM
CNCC(O)C(C)(C)S(=O)(=O)C1(CN2CCc3c(C(=O)NCc4ccc(C#N)cc4)nn(C)c3C2=O)CC1 (single isomer, unassigned) [Example 202]	2 nM	30 nM	–	–
CNCC(O)C(C)(C)S(=O)(=O)C1(CN2CCc3c(C(=O)NCc4ccc(C#N)cc4)nn(C)c3C2=O)CC1 (single isomer, unassigned) [Example 203]	2 nM	38 nM	19 nM	–
CNCC(O)C(C)(C)S(=O)(=O)C1(CN2CCc3c(C(=O)NCc4ccc(Cl)cc4)nn(C)c3C2=O)CC1 (single isomer, unassigned) [Example 204]	3 nM	37 nM	–	–
CNCC(O)C(C)(C)S(=O)(=O)C1(CN2CCc3c(C(=O)NCc4ccc(Cl)cc4)nn(C)c3C2=O)CC1 (single isomer, unassigned) [Example 205]	2 nM	29 nM	9 nM	–
CN(C)CC(O)C(C)(C)S(=O)(=O)C1(CN2CCc3c(C(=O)NCc4ccc(Cl)cc4)nn(C)c3C2=O)CC1 (single isomer, unassigned) [Example 206]	21 nM	74 nM	–	–
CN(C)CC(O)C(C)(C)S(=O)(=O)C1(CN2CCc3c(C(=O)NCc4ccc(Cl)cc4)nn(C)c3C2=O)CC1 (single isomer, unassigned) [Example 207]	23 nM	88 nM	50 nM	–
N#Cc1ccc(CNC(=O)c2n[nH]c3c2CCN(CC2(S(=O)(=O)C4CC4)CC2)C3=O)cc1 [Example 45, N-(4-Cyanobenzyl)-6-((1-(cyclopropylsulfonyl)cyclopropyl)methyl)-7-oxo-4,5,6,7-tetrahydro-1H-pyrazolo[3,4-c]pyridine-3-carboxamide]	6 nM	169 nM	–	EC50 [3, 10]: 146 nM
Cn1nc(C(=O)NCc2ccc(C#N)cc2)c2c1C(=O)N(CC1(S(=O)(=O)C(C)(C)COCCO)CC1)CC2 [Example 87, N-(4-Cyanobenzyl)-6-((1-((1-(2-hydroxyethoxy)-2-methylpropan-2-yl)sulfonyl)cyclopropyl)methyl)-1-methyl-7-oxo-4,5,6,7-tetrahydro-1H-pyrazolo[3,4-c]pyridine-3-carboxamide]	1 nM	32 nM	–	EC50 [3, 10]: 44 nM
CC(C)[C@@H](NS(=O)(=O)C1(CN2CCc3c(C(=O)NCc4ccc(Cl)cc4)nn(C)c3C2=O)CC1)C(=O)O [Example 215, ((1-((3-((4-Chlorobenzyl)carbamoyl)-1-methyl-7-oxo-1,4,5,7-tetrahydro-6H-pyrazolo[3,4-c]pyridin-6-yl)methyl)cyclopropyl)sulfonyl)-D-valine]	1 nM	28 nM	–	EC50 ([3]; NN-NHDF cells, MOI of 1, 72 hrs, read-out: CMV-Luc Cellular EC50): 1900 nM
Cn1nc(C(=O)NCc2ccc(C#N)cc2)c2c1C(=O)N(CC1(S(=O)(=O)C(C)(C)C(O)CO)CC1)CC2 (centres unmarked) [Example 252, N-(4-cyanobenzyl)-6-((1-((3,4-dihydroxy-2-methylbutan-2-yl)sulfonyl)cyclopropyl)methyl)-1-methyl-7-oxo-4,5,6,7-tetrahydro-1H-pyrazolo[3,4-c]pyridine-3-carboxamide]	–	–	–	EC50 [7]: 21.9 nM
